Consider two molecules from patent publication US20190336519A1, “APPLICATION OF ALBIFLORIN AS INDOLEAMINE 2,3-DIOXYGENASE (IDO) INHIBITOR” (priority 2017, published 2019).

The test system of test [1] is indoleamine 2,3-dioxygenase (IDO). Put plainly: Western Blot of IDO in hippocampal tissue of chronic unpredictable mild stress (CUMS) rats. The test is classed as in vivo, rat. Particulars: for IDO (folds relative to Blank group): CUMS rat hippocampal tissue, Mean±SE. From the text:
(§1) 1. […] Western Blot was used to detect the effects of albiflorin on IDO and MT1, and the results are found in FIG. 1:
(§2) Effects of albiflorin on indoleamine 2,3-dioxygenase (IDO) and melatonin receptors 1 (MT1) in the rat hippocampal tissue (Mean±SE)

The test system of test [2] is melatonin receptors 1 (MT1). Briefly: Western Blot of MT1 in hippocampal tissue of chronic unpredictable mild stress (CUMS) rats. The test is classed as in vivo, rat. Particulars: for MT1 (folds relative to Blank group): CUMS rat hippocampal tissue, Mean±SE.
Text: as §1, §2

Test [3] has as its system tryptophan metabolic pathway (kynurenine-quinolinic acid / serotonin-melatonin). Put plainly: Tryptophan metabolites in hippocampus of CUMS rats. It counts as in vivo, rat. As to conditions: after 7 days of administration (7 mg/kg, 14 mg/kg).
For test [4], the system named is LPS-induced mouse inflammatory depression-like behaviors. Put plainly: Behavioral tests (Forced Swimming Test, Tail Suspension Test) in mice after modeling with LPS. It counts as in vivo. As to conditions: High dose group (14 mg/kg), gavage 7 days, 24 h after LPS. The procedure: (§3) The mice were randomly divided into 6 groups (16 for each group): Blank group, Model group, Fluoxetine hydrochloride (a positive drug) group (10 mg/kg), Low dose of albiflorin group (3.5 mg/kg), Medium dose of albiflorin group (7 mg/kg), and High dose of albiflorin group (14 mg/kg), and administered continuously by gavage for 7 days.
1. The behavioral tests: Forced Swimming Test (FST), Tail Suspension Test (TST) and Open Field Test (OFT)
(§4) On the 7th day after administration, LPS was injected intraperitoneally (0.83 mg/kg) for modeling. At 16 h after the injection, the Open Field Test (OFT) was carried out; at 24 h after the injection, the Forced Swimming Test (FST) and Tail Suspension Test (TST) were carried out. Thereafter, the blood was taken by enucleating eyeball, and centrifuged to collect the plasma. After the mice were sacrificed, the hippocampal tissues were taken out and quickly frozen in liquid nitrogen, and stored at −80° C.
(§5) The test data are shown in mean±SE, and originPro8.0 software was used for the statistical analysis of the data and plotting.

Test [5] deals with IL-6, TNF-α, CORT in mouse plasma. Put plainly: Levels of inflammatory factors and CORT in mouse plasma after modeling with LPS. It counts as in vivo. Particulars: LPS mice, gavage 7 days. On the procedure:
as §3, §4
(§6) 2. Determination of the effects of albiflorin and the positive drug fluoxetine on the concentrations of inflammatory factors IL-6, TNF-α, and PGE2, and glucocorticoid CORT in the mouse plasma and hippocampal tissue.
as §5

For test [6], the system named is IL-6, TNF-α, CORT in mouse hippocampal tissue. Put plainly: ELISA of inflammatory factors and CORT in mouse hippocampal tissue after modeling with LPS. It counts as in vivo. As to conditions: LPS mice, gavage 7 days. The procedure: as §3, §4, §6, §5
An ELISA assay was used to detect the levels of inflammatory factors IL-6, TNF-α and PGE2, and CORT in the mouse hippocampal tissue.
On the technique in general: ELISA stands for enzyme-linked immunosorbent assay.

A further test addresses T1, IDO (Mus musculus, UniProt P28776).
T1 construct: ratio of kynurenine/tryptophan (KYN/TrP) in the mouse hippocampal tissue; from tissue; host or cells: mouse hippocampal tissue (LPS model)
Put plainly: Ratio of kynurenine/tryptophan (IDO activity) in mouse hippocampal tissue after modeling with LPS. It counts as in vivo. As to conditions: LPS mice, gavage 7 days. The procedure:
as §3, §4
3. Determination of the effects of albiflorin and fluoxetine on expression of IDO in the mouse hippocampal tissue.
as §5
The activity of IDO in the hippocampus was expressed through the levels of KYN and TrP and the ratio of KYN/TrP.

[7] abbreviates: CUMS rat, after 7 days of administration (7 mg/day, 14 mg/day), P<0.01.
Where [8] appears, read: medium and high doses (7, 14 mg/kg).

SMILES strings stand for the structures. Entries after “also recorded” stand apart in the source; their conditions may differ.

T1 sequence (P28776 whole entry): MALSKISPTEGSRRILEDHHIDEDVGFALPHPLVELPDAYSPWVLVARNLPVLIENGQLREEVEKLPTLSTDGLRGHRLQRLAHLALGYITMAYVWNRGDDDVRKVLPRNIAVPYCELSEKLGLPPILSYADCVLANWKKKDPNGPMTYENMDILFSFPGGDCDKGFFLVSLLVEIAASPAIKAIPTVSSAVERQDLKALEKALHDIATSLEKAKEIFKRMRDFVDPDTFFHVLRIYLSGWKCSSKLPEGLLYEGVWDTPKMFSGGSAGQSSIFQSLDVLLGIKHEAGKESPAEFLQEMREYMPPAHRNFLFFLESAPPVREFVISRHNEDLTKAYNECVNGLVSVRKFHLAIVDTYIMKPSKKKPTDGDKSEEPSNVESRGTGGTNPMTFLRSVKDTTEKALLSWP

Consider `C[C@]12C[C@@H](O)[C@@H]3C[C@@]1(O[C@@H]1O[C@H](CO)[C@@H](O)[C@H](O)[C@H]1O)[C@]3(COC(=O)c1ccccc1)C(=O)O2` [Albiflorin, albiflorin], for which, in test [1] (3.5 mg/kg), the “IDO (folds relative to Blank group)” value is given as 1.46 ± 0.014 folds relative to Blank group. Further, the “IDO (folds relative to Blank group)” value in test [1] (7 mg/kg) is reported as 1.02 ± 0.010 folds relative to Blank group. Also, in test [1] (14 mg/kg), the “IDO (folds relative to Blank group)” value is recorded as 0.80 ± 0.008 folds relative to Blank group. Also, the “IDO activity in the rat hippocampus” value in test [1] (setting [7]) is recorded as “significantly inhibited”. For the same molecule, the “MT1 (folds relative to Blank group)” value in test [2] (3.5 mg/kg) is 1.37 ± 0.013 folds relative to Blank group. For the same molecule, the “MT1 (folds relative to Blank group)” value in test [2] (7 mg/kg) is 1.39 ± 0.0014 folds relative to Blank group. In addition, the “MT1 (folds relative to Blank group)” value in test [2] (14 mg/kg) was 1.39 ± 0.014 folds relative to Blank group. Moreover, the “melatonin receptors 1 (MT1) in the rat hippocampus” value in test [2] (setting [7]) is on record as “increased significantly”. In addition, the “ratio of kynurenine to tryptophan (KYN/TrP)” value in test [3] (CUMS rat hippocampus) is “downregulated significantly”. Further, in test [3] (CUMS rat, P<0.01), the “level of kynurenine in the rat hippocampus” value is listed as “decreased significantly”, the “level of melatonin in the hippocampus” value is on record as “increased significantly”, the “level of quinolinic acid in the rat hippocampus” value is “decreased significantly” and the “level of serotonin in the hippocampus” value is listed as “increased significantly”. Moreover, in test [4], the “immobility time in the Tail Suspension Test compared with Model group” value is “significant difference”. Further, in test [5], the “concentration of CORT in the mouse plasma” value is recorded as “substantially decrease”. In test [5] (setting [8]), the “level of IL-6 in the mouse plasma” value is given as “substantially decreased” and the “level of TNF-α in the mouse plasma” value is reported as “substantially decreased”. In addition, in test [6] (High dose group (14 mg/kg)), the “level of IL-6 in the mouse hippocampal tissue compared with Model group” value is listed as “significantly decreased” and the “level of TNF-α in the mouse hippocampal tissue compared with Model group” value is “significantly decreased”. The “level of CORT in the hippocampal tissue” value in test [6] is listed as “substantially decreased”. Besides, the “activity of IDO in the mouse hippocampal tissue” value at IDO (High dose (14 mg/kg), 14 mg/kg) was “significantly inhibited; also recorded: decrease”. Besides, the “ratio of kynurenine/tryptophan (KYN/TrP) in the mouse hippocampal tissue compared with Model group” value at IDO (High dose group (14 mg/kg), P<0.05) is listed as “decreased”.

As to `CNCCC(Oc1ccc(C(F)(F)F)cc1)c1ccccc1` (stereo not shown) [Fluoxetine, fluoxetine, reference compound], the “IDO (folds relative to Blank group)” value in test [1] (10 mg/kg) is listed as 1.29 ± 0.014 folds relative to Blank group. Further, the “MT1 (folds relative to Blank group)” value in test [2] (10 mg/kg) is 0.50 ± 0.005 folds relative to Blank group. Also, the “LPS-induced activation/overexpression of IDO in the hippocampus compared with Model group” value at IDO (10 mg/kg) is reported as “failed to be corrected”.
